The source of these data is patent publication US12539292B2, “BRM targeting compounds and associated methods of use” (Arvinas Operations, Inc., priority 2018, dated 2026).

SMILES strings stand for the structures. Like-named read-outs stand apart in the source and are kept apart here.

The assay deals with T1, BRM (Homo sapiens, UniProt P51531).
T1 construct: In-Cell Western Screen of BRM Degradation in SW1573 Cells; endogenous in cells; host or cells: SW1573
The assay is described as follows: In-cell Western screen of BRM degradation in SW1573 cells (Dmax and DC50). It counts as cell-based. Put shortly:
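BRM levels were read by LI-COR in-cell Western after two-channel (800/680 nm) immunostaining of fixed, Triton-permeabilised SW1573 cells.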

[1] abbreviates: BRM degradation, SW1573 cells, read-out: DC50.
Where [2] appears, read: BRM degradation, SW1573 cells, when tested at the top concentration of between 0.3 and 10 μM, read-out: Dmax (%) (% degraded).
Setting [3] is: BRM degradation, SW1573 cells, Table 2D, read-out: *DC50.
[4] abbreviates: SW1573, % degraded, when tested at the top concentration of between 0.3 and 10 μM, read-out: BRM Dmax (%).
The mark [5] stands for this setting: target protein degradation, read-out: BRM DC50.

T1 sequence (P51531 whole entry): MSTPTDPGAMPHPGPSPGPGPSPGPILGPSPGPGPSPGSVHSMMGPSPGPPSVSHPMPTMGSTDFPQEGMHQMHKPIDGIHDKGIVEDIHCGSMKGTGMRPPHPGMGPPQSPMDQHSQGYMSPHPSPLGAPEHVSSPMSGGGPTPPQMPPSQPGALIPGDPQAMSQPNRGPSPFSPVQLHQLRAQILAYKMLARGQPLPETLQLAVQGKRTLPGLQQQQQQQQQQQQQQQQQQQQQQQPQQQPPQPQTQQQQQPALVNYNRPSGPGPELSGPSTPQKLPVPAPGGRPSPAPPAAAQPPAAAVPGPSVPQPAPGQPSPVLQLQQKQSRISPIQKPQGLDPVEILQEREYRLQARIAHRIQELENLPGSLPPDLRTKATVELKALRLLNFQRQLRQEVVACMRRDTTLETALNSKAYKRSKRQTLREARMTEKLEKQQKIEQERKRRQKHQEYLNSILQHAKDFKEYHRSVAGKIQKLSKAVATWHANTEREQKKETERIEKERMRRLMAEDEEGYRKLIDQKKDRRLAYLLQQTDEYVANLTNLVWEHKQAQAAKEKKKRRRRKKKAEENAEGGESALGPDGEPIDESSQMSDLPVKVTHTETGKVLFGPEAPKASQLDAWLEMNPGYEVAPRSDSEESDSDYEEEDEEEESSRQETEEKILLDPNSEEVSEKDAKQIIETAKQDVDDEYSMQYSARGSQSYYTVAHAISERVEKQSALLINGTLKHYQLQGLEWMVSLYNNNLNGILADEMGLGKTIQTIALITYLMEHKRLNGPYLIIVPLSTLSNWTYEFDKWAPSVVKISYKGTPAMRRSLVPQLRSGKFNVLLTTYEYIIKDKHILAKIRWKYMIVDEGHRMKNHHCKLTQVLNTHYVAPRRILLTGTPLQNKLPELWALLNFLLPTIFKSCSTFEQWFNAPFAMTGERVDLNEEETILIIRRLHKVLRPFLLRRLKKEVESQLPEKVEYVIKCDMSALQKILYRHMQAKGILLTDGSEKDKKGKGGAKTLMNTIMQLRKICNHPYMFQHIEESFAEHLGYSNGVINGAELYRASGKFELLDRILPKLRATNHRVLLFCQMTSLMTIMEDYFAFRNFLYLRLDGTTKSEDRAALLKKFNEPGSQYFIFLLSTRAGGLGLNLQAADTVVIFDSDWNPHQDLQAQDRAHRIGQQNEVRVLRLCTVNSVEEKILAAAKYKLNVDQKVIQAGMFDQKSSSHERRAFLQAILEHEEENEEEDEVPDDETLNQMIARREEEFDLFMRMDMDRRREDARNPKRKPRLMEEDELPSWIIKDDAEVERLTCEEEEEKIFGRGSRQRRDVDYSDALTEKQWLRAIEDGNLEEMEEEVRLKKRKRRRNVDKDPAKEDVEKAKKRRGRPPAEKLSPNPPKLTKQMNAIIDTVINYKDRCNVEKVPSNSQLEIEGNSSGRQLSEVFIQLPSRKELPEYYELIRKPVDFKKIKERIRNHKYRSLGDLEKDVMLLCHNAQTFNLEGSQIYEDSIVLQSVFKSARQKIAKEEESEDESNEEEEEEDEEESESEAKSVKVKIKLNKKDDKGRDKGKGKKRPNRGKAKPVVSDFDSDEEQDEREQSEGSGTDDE

On to `Cc1ncoc1-c1ccc([C@H](C)NC(=O)[C@@H]2C[C@@H](O)CN2C(=O)[C@H](c2cc(OCCN3CCN(CCOc4cc(N5C6CCC5CN(c5cc(-c7ccccc7O)nnc5N)C6)ccn4)CC3)no2)C(C)C)cc1` [compound 299, (2S,4R)-1-((2S)-2-(3-(2-(4-(2-((4-(3-(3-amino-6-(2-hydroxyphenyl)pyridazin-4-yl)-3,8-diazabicyclo[3.2.1]octan-8-yl)pyridin-2-yl)oxy)ethyl)piperazin-1-yl)ethoxy)isoxazol-5-yl)-3-methylbutanoyl)-4-hydroxy-N-((S)-1-(4-(4-methyloxazol-5-yl)phenyl)ethyl)pyrrolidine-2-carboxamide], for which the DC50 under setting [1] is above 30 nM. Turning to `Cc1ncsc1-c1ccc(CNC(=O)[C@@H]2C[C@@H](O)CN2C(=O)[C@H](c2cc(CCCOCCOCCOCCOCCn3cc(-c4cc(-c5ccccc5O)nnc4N)cn3)no2)C(C)C)cc1` [compound 25], the DC50 under setting [1] was above 30 nM. In addition, the Dmax under setting [2] is above 75%. `Cc1nccn1-c1ccc([C@H](C)NC(=O)[C@@H]2C[C@@H](O)CN2C(=O)[C@@H](c2cc(N3CCC(CN4CCC(O[C@H]5C[C@H](Oc6cc(N7C8CCC7CN(c7cc(-c9ccccc9O)nnc7N)C8)ccn6)C5)CC4)CC3)no2)C(C)C)cc1` [compound 606, (2S,4R)-1-((2S)-2-(3-(4-((4-((1r,3r)-3-((4-(3-(3-amino-6-(2-hydroxyphenyl)pyridazin-4-yl)-3,8-diazabicyclo[3.2.1]octan-8-yl)pyridin-2-yl)oxy)cyclobutoxy)piperidin-1-yl)methyl)piperidin-1-yl)isoxazol-5-yl)-3-methylbutanoyl)-4-hydroxy-N-((S)-1-(4-(2-methyl-1H-imidazol-1-yl)phenyl)ethyl)pyrrolidine-2-carboxamide]: the Dmax (BRM degradation, SW1573 cells, Table 2D, read-out: **Dmax (%) (% degraded)) is above 75%. Further, the DC50 under setting [3] lay in the range of 10 to 30 nM. In the case of `COCc1ncsc1-c1ccc([C@H](C)NC(=O)[C@@H]2C[C@@H](O)CN2C(=O)[C@@H](c2cc(OCCN3CCC(O[C@H]4C[C@H](Oc5cc(N6C7CCC6CN(c6cc(-c8ccccc8O)nnc6N)C7)ccn5)C4)CC3)no2)C(C)C)cc1` [compound 185, (2S,4R)-1-((2R)-2-(3-(2-(4-((1r,3R)-3-((4-(3-(3-amino-6-(2-hydroxyphenyl)pyridazin-4-yl)-3,8-diazabicyclo[3.2.1]octan-8-yl)pyridin-2-yl)oxy)cyclobutoxy)piperidin-1-yl)ethoxy)isoxazol-5-yl)-3-methylbutanoyl)-4-hydroxy-N-((S)-1-(4-(4-(methoxymethyl)thiazol-5-yl)phenyl)ethyl)pyrrolidine-2-carboxamide], the DC50 under setting [1] was below 2.5 nM. Also, the Dmax (BRM degradation, SW1573 cells, tested at the top concentration of between 0.3 and 10 μM, read-out: Dmax (%) (% degraded)) was above 75%. In the case of `Cc1ncsc1-c1ccc([C@H](C)NC(=O)[C@@H]2C[C@@H](O)CN2C(=O)[C@H](c2cc(OCCN3CCN(CCC#CCn4cc(-c5cc(-c6ccccc6O)nnc5N)cn4)CC3)no2)C(C)C)cn1` [compound 197, (2S,4R)-1-((S)-2-(3-(2-(4-(5-(4-(3-amino-6-(2-hydroxyphenyl)pyridazin-4-yl)-1H-pyrazol-1-yl)pent-3-yn-1-yl)piperazin-1-yl)ethoxy)isoxazol-5-yl)-3-methylbutanoyl)-4-hydroxy-N-((S)-1-(6-(4-methylthiazol-5-yl)pyridin-3-yl)ethyl)pyrrolidine-2-carboxamide], under setting [1], the DC50 was above 30 nM. As for `Cc1ncsc1-c1ccc([C@H](C)NC(=O)[C@@H]2C[C@@H](O)CN2C(=O)[C@@H](c2cc(OCCOc3ccc(C(C)n4cc(-c5cc(-c6ccccc6O)nnc5N)cn4)cc3)no2)C(C)C)cc1` (stereo partly drawn) [compound 81, (2S,4R)-1-((2R)-2-(3-(2-(4-(1-(4-(3-amino-6-(2-hydroxyphenyl)pyridazin-4-yl)-1H-pyrazol-1-yl)ethyl)phenoxy)ethoxy)isoxazol-5-yl)-3-methylbutanoyl)-4-hydroxy-N-((S)-1-(4-(4-methylthiazol-5-yl)phenyl)ethyl)pyrrolidine-2-carboxamide], the half-maximal degradation concentration (DC50) under setting [1] is below 2.5 nM. Under setting [2], the Dmax was above 75%. Turning to `Cc1ncsc1-c1ccc([C@H](C)NC(=O)[C@@H]2C[C@@H](O)CN2C(=O)[C@H](c2cc(OCCC3CCN(C(=O)[C@H]4C[C@H](CN5CCC([C@H](C)n6cc(-c7cc(-c8ccccc8O)nnc7N)cn6)CC5)C4)CC3)no2)C(C)C)cc1` [compound 453, (2S,4R)-1-((S)-2-(3-(2-(1-((1S,3S)-3-((4-((S)-1-(4-(3-amino-6-(2-hydroxyphenyl)pyridazin-4-yl)-1H-pyrazol-1-yl)ethyl)piperidin-1-yl)methyl)cyclobutane-1-carbonyl)piperidin-4-yl)ethoxy)isoxazol-5-yl)-3-methylbutanoyl)-4-hydroxy-N-((S)-1-(4-(4-methylthiazol-5-yl)phenyl)ethyl)pyrrolidine-2-carboxamide], the Dmax under setting [4] was above 75%. In addition, the DC50 under setting [5] is below 2.5 nM.

Consider `Cc1ncsc1-c1ccc(CNC(=O)[C@@H]2C[C@@H](O)CN2C(=O)[C@@H](NC(=O)COCCOCCOCCOCCCc2cc(N3C4CCC3CN(c3cc(-c5ccccc5O)nnc3N)C4)ccn2)C(C)(C)C)cc1` [compound 53, (2S,4R)-1-((S)-18-(4-(3-(3-amino-6-(2-hydroxyphenyl)pyridazin-4-yl)-3,8-diaza-bicyclo[3.2.1]octan-8-yl)pyridin-2-yl)-2-tert-butyl-4-oxo-6,9,12,15-tetraoxa-3-azaoctadecan-1-oyl)-4-hydroxy-N-(4-(4-methylthiazol-5-yl)benzyl)pyrrolidine-2-carboxamide], for which, under setting [1], the DC50 fell in the range of 2.5 to 10 nM. The Dmax under setting [2] was above 75%. Turning to `Cc1cc([C@@H](C(=O)N2C[C@H](O)C[C@H]2C(=O)N[C@@H](C)c2ccc(-c3scnc3C)cc2)[C@H](C)COCCCCn2cc(-c3cc(-c4ccccc4O)nnc3N)cn2)on1` [compound 557, (2S,4R)-1-((2S,3S)-4-(4-(4-(3-amino-6-(2-hydroxyphenyl)pyridazin-4-yl)-1H-pyrazol-1-yl)butoxy)-3-methyl-2-(3-methylisoxazol-5-yl)butanoyl)-4-hydroxy-N-((S)-1-(4-(4-methylthiazol-5-yl)phenyl)ethyl) pyrrolidine-2-carboxamide], under setting [3], the DC50 was above 30 nM. In the case of `Cc1nccn1-c1ccc([C@H](C)NC(=O)[C@@H]2C[C@@H](O)CN2C(=O)[C@@H](c2cc(OCC#Cc3ncc(O[C@H]4C[C@H](Oc5cc(N6C7CCC6CN(c6cc(-c8ccccc8O)nnc6N)C7)ccn5)C4)cn3)no2)C(C)C)cc1` [compound 394, (2S,4R)-1-((2R)-2-(3-((3-(5-((1r,3R)-3-((4-(3-(3-amino-6-(2-hydroxyphenyl)pyridazin-4-yl)-3,8-diazabicyclo[3.2.1]octan-8-yl)pyridin-2-yl)oxy)cyclobutoxy)pyrimidin-2-yl)prop-2-yn-1-yl)oxy)isoxazol-5-yl)-3-methylbutanoyl)-4-hydroxy-N-((S)-1-(4-(2-methyl-1H-imidazol-1-yl)phenyl)ethyl)pyrrolidine-2-carboxamide], the greatest degradation seen (Dmax) under setting [4] was above 75%. Besides, under setting [5], the DC50 was below 2.5 nM.

By DC50 is commonly meant the concentration giving 50% degradation. As a reminder, the Dmax is the largest share of the target that was removed.
